Patent US7479489B2, “Heterocyclic antiviral compounds” (Roche Palo Alto LLC, priority 2004, dated 2009)

Experiments:
HCV NS5B570n-BK = molecular target: T1, HCV NS5B570n-BK (Hepatitis C virus genotype 1b, UniProt P26663); experiment: HCV NS5B RNA polymerase activity; assay type: biochemical, HCV BK strain
T1 construct: His tag (N); made in house; host or cells: E. coli strain M15
Protocol: The enzymatic activity of HCV NS5B570n-BK is measured as incorporation of radiolabeled nucleotide monophosphates into acid insoluble RNA products. Unincorporated radiolabel substrate is removed by filtration and scintillant is added to the washed and dried filter plate containing radiolabeled RNA product. The light emitted by the scintillant is proportional to the amount of RNA product generated by NS5B570n-BK at the endpoint of the reaction.
The N-terminally histidine tagged HCV polymerase, derived from HCV BK strain, genotype 1b (NS5B570n-BK) contains a 21 amino acid deletion at the C-terminus relative to the full-length HCV polymerase and is purified from E. coli strain M15. The construct containing the coding sequence of HCV BK strain amino acid residues 2421-2999 (GenBank accession number M58335) downstream of a […] promoter expression cassette was inserted into plasmid constructs. The plasmid constructs are transformed in E. coli and colonies are inoculated and grown overnight in 10 L of Terrific broth (Tartoff and Hobbs) supplemented with 100 μg/mL ampicillin at 37° C. Protein expression is induced by addition of 1 mM isopropyl-β-D-thiogalactopyranoside (IPTG), when optical densities reaches between 1.5 and 3.5 OD600 and the culture is then incubated for 16- to 18 h at 22° C. NS5B570n-BK is purified to homogeneity using a three step protocol including subsequent column chromatography on Ni-NTA, SP-Sepharose HP and Superdex 75 resins.
Each 50 μl enzymatic reaction contains 8:4 μg/mL polyA:oligo U16 (template:primer), 20 nM or 200 nM NS5B570n-BK enzyme, 1 μCi of tritiated UTP (Perkin Elmer catalog no. TRK412; specific activity: 30 to 60 Ci/mmol; stock solution concentration from 7.5×10^−5 M to 20.6×10^−6 M), 40 mM Tris-HCl pH 8.0, 2 to 40 mM NaCl, 4 mM DTT (dithiothreitol), 4 mM MgCl2, and 5 μl of compound serial diluted in DMSO. Reaction mixtures are assembled in MADVNOB 96-well filter plates (Millipore Co.) and incubated for 2 h at 30° C. Reactions are stopped by addition of 10% (v/v) trichloroacetic acid and incubated for 40 min at 4° C. Reactions are filtered, washed with 8 reaction volumes of 10% (v/v) trichloroacetic acetic acid, 4 reaction volumes of 70% (v/v) ethanol, air dried, and 25 μl of scintillant (Microscint 20, Perkin-Elmer) is added to each reaction well.
The amount of light emitted from the scintillant is converted to counts per minute (CPM) on a Topcount® plate reader (Perkin-Elmer, Energy Range: Low, Efficiency Mode: Normal, Count Time: 1 min, Background Subtract: none, Cross talk reduction: Off).
Data is analyzed with GraphPad® Prism® and/or Microsoft® Excel®. The reaction in the absence of enzyme is used to determine the background signal, which is subtracted from the enzymatic reactions. Positive control reactions are performed in the absence of compound, from which the background corrected activity is set as 100% polymerase activity. All data is expressed as a percentage of the positive control. The compound concentration at which the enzyme-catalyzed rate of RNA synthesis is reduced by 50% (IC50) is calculated by fitting equation (i) to
[formula] the data, where “Y” corresponds to the relative enzyme activity (in %), “% Min” is the residual relative enzymatic activity at saturating compound concentration, “% Max” is the maximal relative enzymatic activity compared to positive control, X corresponds to the compound concentration, and “S” is the Hill coefficient (or slope).
Alternatively the assay can be run as described above with the following modifications. The polyA:oligo U16 homopolymeric RNA template:primer is replaced by the heteropolymeric cIRES RNA template at concentrations of 20 nM or 200 nM. The cIRES RNA template is derived from the complementary sequence of the Internal Ribosome Entry site of the HCV genome (nucleotide 1 through 378 at the 5′-end of the negative strand of the HCV genome (EMBL database accession number AJ238799). The reaction mixture is supplemented with 1 μM ATP, CTP, and GTP […]

[1] = system: Renilla luciferase HCV replicon cells (2209-23); experiment: Renilla luciferase assay (HCV replicon); assay type: cell-based; settings: 72 h; replicon level, three days incubation

T1 sequence (P26663 2421-2989): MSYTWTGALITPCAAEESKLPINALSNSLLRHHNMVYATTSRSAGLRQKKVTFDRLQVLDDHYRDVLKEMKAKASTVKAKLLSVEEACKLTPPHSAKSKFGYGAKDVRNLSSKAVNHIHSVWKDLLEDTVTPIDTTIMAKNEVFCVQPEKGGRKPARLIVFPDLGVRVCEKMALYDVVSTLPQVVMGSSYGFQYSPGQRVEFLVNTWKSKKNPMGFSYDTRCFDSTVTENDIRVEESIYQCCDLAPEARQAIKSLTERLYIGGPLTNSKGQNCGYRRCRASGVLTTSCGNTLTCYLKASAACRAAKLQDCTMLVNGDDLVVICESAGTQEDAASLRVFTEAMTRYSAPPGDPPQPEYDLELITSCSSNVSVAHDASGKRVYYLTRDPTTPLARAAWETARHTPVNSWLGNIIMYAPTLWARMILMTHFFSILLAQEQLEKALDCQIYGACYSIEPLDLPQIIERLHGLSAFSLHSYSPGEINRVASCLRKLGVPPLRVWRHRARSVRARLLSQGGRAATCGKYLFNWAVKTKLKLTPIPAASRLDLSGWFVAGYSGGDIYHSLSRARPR

| Structure (SMILES) | IC50 (HCV NS5B570n-BK; 200 nM polyA: oligo U16) [µM] | melting point [°C] | IC50 [1] [µM] | IC50 (HCV NS5B570n-BK; 20 nM cIRES) [µM] | IC50 (HCV NS5B570n-BK; 200 nM cIRES) [µM] |
| --- | --- | --- | --- | --- | --- |
| NS(=O)(=O)Nc1ccc2c(c1)S(=O)(=O)C=C(c1c(O)c3cc(F)ccc3n(CCC3CC3)c1=O)N2 [Compound I-40, 1-{3-[1-(2-cyclopropyl-ethyl)-6-fluoro-4-hydroxy-2-oxo-1,2-dihydro-quinolin-3-yl]-1,1-dioxo-1,4-dihydro-1λ^6-benzo[1,4]thiazin-7-yl}-sulfamide] | 0.35 | 183 to 186 | 0.009 | – | – |
| CC(C)(C)[C@H]1C(O)=C(C2=CS(=O)(=O)c3cc(NS(C)(=O)=O)ccc3N2)C(=O)N1Cc1ccc(F)c(Cl)c1 [II-11, N-{3-[(S)-5-tert-Butyl-1-(3-chloro-4-fluoro-benzyl)-4-hydroxy-2-oxo-2,5-dihydro-1H-pyrrol-3-yl]-1,1-dioxo-1,4-dihydro-1λ^6-benzo[1,4]thiazin-7-yl}-methanesulfonamide] | – | – | 0.009 | 0.0046 | – |
| NC(=O)COc1ccc2c(c1)S(=O)(=O)C=C(c1c(O)c3cc(F)ccc3n(Cc3ccc(F)cc3)c1=O)N2 [Compound I-20, 2-{3-[6-Fluoro-1-(4-fluoro-benzyl)-4-hydroxy-2-oxo-1,2-dihydro-quinolin-3-yl]-1,1-dioxo-1,4-dihydro-1λ^6-benzo[1,4]thiazin-7-yloxy}-acetamide] | 0.15 | – | 1.05 | – | – |
| CS(=O)(=O)Nc1ccc2c(c1)S(=O)(=O)C=C(c1c(O)c3cc(F)ccc3n(Cc3ccc(F)cc3)c1=O)N2 [Compound I-24, N-{3-[6-Fluoro-1-(4-fluoro-benzyl)-4-hydroxy-2-oxo-1,2-dihydro-quinolin-3-yl]-1,1-dioxo-1,4-dihydro-1λ^6-benzo[1,4]thiazin-7-yl}-methanesulfonamide] | 0.151 | – | 0.013 | 0.0055 | 0.067 |
| CS(=O)(=O)Nc1ccc2c(c1)S(=O)(=O)C=C(c1c(O)c3cc(F)c(F)cc3n(Cc3ccc(F)cc3)c1=O)N2 [Compound I-69, N-{3-[6,7-Difluoro-1-(4-fluoro-benzyl)-4-hydroxy-2-oxo-1,2-dihydro-quinolin-3-yl]-1,1-dioxo-1,4-dihydro-1λ^6-benzo[1,4]thiazin-7-yl}-methanesulfonamide] | – | – | 0.015 | 0.0144 | – |
| CCS(=O)(=O)Nc1ccc2c(c1)S(=O)(=O)C=C(c1c(O)c3cc(F)ccc3n(CCC3CC3)c1=O)N2 [Compound I-32, ethanesulfonic acid {3-[1-(2-cyclopropyl-ethyl)-6-fluoro-4-hydroxy-2-oxo-1,2-dihydro-quinolin-3-yl]-1,1-dioxo-1,4-dihydro-1λ6-benzo[1,4]thiazin-7-yl}-amide] | 0.22 | 140 to 142 | 0.005 | 0.0073 | – |
